The results in this text go back to BindingDB's records for doi:10.1073/pnas.92.8.3298 (Agouron Pharmaceuticals, 1995).

Bounds are passed on as bounds.

This assay concerns the target T1, Dimer of Gag-Pol polyprotein [489-587] (Human immunodeficiency virus 1, UniProt P12497).
T1 construct: 489-587
Put plainly: Protease Inhibition Assay. Conditions: pH 5.6; 37 °C. On the procedure: Protease activity was measured by continuous chromogenic assay. The chromogenic peptide His-Lys-Ala-Arg-Val-Leu- (p-NO2-Phe)-Glu-Ala-Nleu-Ser (Bachem) was used as a substrate. Reactions were followed by the decrease of absorbance at 300 nm measured by spectrophotometer. Experimental results were analyzed by the nonlinear regression analysis, using a mathematical model for tight binding inhibitors.
What is called Ki is a dissociation constant, usually derived from enzyme kinetics or from competition with a known ligand. A high value points to lower affinity. Turning to `CC(C)(c1ccccc1)N(CCO)C(=O)c1ccccc1CCC(O)Cc1ccccc1C(=O)N(CCO)C(C)(C)c1ccccc1` (stereo not drawn) [2-(3-hydroxy-4-{2-[(2-hydroxyethyl)(2-phenylpropan-2-yl)carbamoyl]phenyl}butyl)-N-(2-hydroxyethyl)-N-(2-phenylpropan-2-yl)benzamide], the Ki amounted to 22 nM. On to `CC(C)(C)NC(=O)c1ccccc1CCC(O)Cc1ccccc1C(=O)NC(C)(C)C` (stereo not drawn) [2-Butanol deriv. 8], for which the Ki is 24000 nM. To `CCC1(N(CCO)C(=O)c2ccccc2CC[C@@H](O)Cc2ccc(C)cc2C(=O)N(CCO)C(C)(C)c2ccccc2)CCCC1` [2-[(2R)-4-{2-[(1-ethylcyclopentyl)(2-hydroxyethyl)carbamoyl]phenyl}-2-hydroxybutyl]-N-(2-hydroxyethyl)-5-methyl-N-(2-phenylpropan-2-yl)benzamide] belongs 4.8 nM; to `CCC1(N(CCO)C(=O)c2ccccc2CC[C@H](O)Cc2ccc(C)cc2C(=O)N(CCO)C(C)(C)c2ccccc2)CCCC1` [2-[(2S)-4-{2-[(1-ethylcyclopentyl)(2-hydroxyethyl)carbamoyl]phenyl}-2-hydroxybutyl]-N-(2-hydroxyethyl)-5-methyl-N-(2-phenylpropan-2-yl)benzamide], 1400 nM.

Compound `CC(C)(C)NC(=O)c1ccccc1C[C@@H](O)[C@H](Cc1ccccc1)NC(=O)[C@H](CC(N)=O)NC(=O)c1ccc2ccccc2n1` [(2S)-N-[(2S,3R)-4-[2-(tert-butylcarbamoyl)phenyl]-3-hydroxy-1-phenylbutan-2-yl]-2-(quinolin-2-ylformamido)butanediamide] registered a Ki of 1.6 nM.

Compound `CC(C)(C)N(CCO)C(=O)c1ccccc1CCC(O)Cc1ccccc1C(=O)N(CCO)C(C)(C)c1ccccc1` (stereo not drawn) [N-tert-butyl-2-(3-hydroxy-4-{2-[(2-hydroxyethyl)(2-phenylpropan-2-yl)carbamoyl]phenyl}butyl)-N-(2-hydroxyethyl)benzamide] had a Ki of 90 nM. In turn, `CC(C)(C)NC(=O)c1ccccc1CC(O)CSc1ccccc1NC(=O)C(C)(C)C` (stereo not drawn) [N-tert-butyl-2-(3-{[2-(2,2-dimethylpropanamido)phenyl]sulfanyl}-2-hydroxypropyl)benzamide] displayed a Ki greater than 100000 nM.

Consider `CC(C)(C)NC(=O)c1ccccc1CC(O)CSc1ccccc1C(=O)NC(C)(C)C` (stereo not drawn) [N-tert-butyl-2-(3-{[2-(tert-butylcarbamoyl)phenyl]sulfanyl}-2-hydroxypropyl)benzamide], for which the Ki came out at 83000 nM.

`CC(C)(C)NC(=O)c1c(CC[C@H](O)Cc2ccc3ccccc3c2C(=O)NC(C)(C)C)ccc2ccccc12` [N-tert-butyl-2-[(3S)-4-[1-(tert-butylcarbamoyl)naphthalen-2-yl]-3-hydroxybutyl]naphthalene-1-carboxamide] showed a Ki of 481 nM. `CC(C)(C)NC(=O)c1ccccc1CCC(O)Cc1ccc2ccccc2c1C(=O)NC(C)(C)C` (stereo not drawn) [N-tert-butyl-2-{4-[2-(tert-butylcarbamoyl)phenyl]-2-hydroxybutyl}naphthalene-1-carboxamide] showed a Ki of 2200 nM. `CC(C)(C)NC(=O)c1ccccc1SCC(O)Cc1ccccc1C(=O)N(CCO)C(C)(C)C` (stereo not drawn) [Tertiary Amide deriv. 6] registered a Ki of 34000 nM. To `CCC1(N(CCO)C(=O)c2ccccc2CCC(O)Cc2ccc(Cl)cc2C(=O)N(CCO)C(C)(C)c2ccccc2)CCCC1` (stereo not drawn) [Tertiary Amide deriv. 43cb] belongs 2 nM; to `CC(C)(C)NC(=O)c1c(CC[C@@H](O)Cc2ccc3ccccc3c2C(=O)NC(C)(C)C)ccc2ccccc12` [diarylbutanol deriv. 7R], 25000 nM.
